The source of these data is US20250282754A1, “BICYCLIC COMPOUNDS AND THEIR USE AS PEST CONTROL AGENTS” (Pl Industries Ltd., priority 2022, published 2025).

Holding throughout (type): in vivo
The subject of one assay is Myzus persicae. The assay can be described thus: Myzus persicae leaf dip test (capsicum leaves, third instar nymphs). As to conditions: foliar, dead and moribund third instar nymphs 72 h after release, compared to untreated controls, read-out: percent mortality. As to the method: The leaf dip method was used for testing, wherein the required quantity of the compound was weighed and dissolved in a tube containing a solvent solution. The tube was put on a vortex at 2000 rpm for proper mixing and then diluted with a 0.01% Triton-X solution to the desired test concentration. Capsicum leaves were dipped in the compound solution for 10 seconds, shade dried for 20 min and then placed, with the abaxial side of the leaf up, in single cells of a bio-assay tray containing 4 ml of a solidified 1% agar-agar solution. Known numbers of third instar nymphs of Myzus persicae, collected in petri plates, were released into the cell with the treated leaf and the cell was covered with a perforated lid for better aeration. The trays were kept in a plant growth chamber at a temperature of 25° C. and a relative humidity of 70%. Observations on dead, moribund and alive nymphs were recorded 72 h after the release. Percent mortality was calculated by combining dead and moribund nymphs and comparing the result with the one of the untreated controls. The compounds

A further assay relates to Bemisia tabaci. The assay can be described thus: Bemisia tabaci leaf dip test (brinjal leaves, whitefly adults). As to conditions: foliar, dead and moribund whitefly adults 72 h after release, compared to untreated controls, read-out: percent mortality. As to the method: The leaf dip method was used for testing, wherein the required quantity of the compound was weighed and dissolved in a tube containing a solvent solution. The tube was put on a vortex at 2000 rpm for proper mixing and then diluted with a 0.01% Triton-X solution to the desired test concentration. Brinjal leaves were dipped in the compound solution for 10 seconds; shade dried for 20 min and then placed, with the abaxial side of the leaf up, on 4 ml of a solidified 1% agar-agar solution in respective container caps. Known numbers of freshly emerged whitefly adults were collected, using a modified aspirator, and released into a perforated container in which the cap containing the treated leaf was placed. The containers were kept in a plant growth chamber at a temperature of 25° C. and relative humidity of 70%. Observations on dead, moribund and alive adults were recorded 72 h after the release. Percent mortality was calculated by combining dead and moribund adults and comparing the result to the one of the untreated controls. The compounds 1 9 11 18 25 28 29 30 31

The subject of another assay is Nilaparvata lugens. The assay is described as follows: Nilaparvata lugens seedling dip test (paddy seedlings, third instar nymphs). To be noted: dead and moribund third instar nymphs 72 h after release, compared to untreated controls, read-out: percent mortality. The method, then:
The seedling dip method was used for testing, wherein the required quantity of the compound was weighed and dissolved in a tube containing a solvent solution. The tube was put on a vortex at 2000 rpm for proper mixing and then diluted with a 0.01% Triton-X solution to the desired test concentration. Paddy seedlings were dipped in the compound solution for 10 seconds, shade dried for 20 min and then the seedlings were placed in glass test tubes with the roots kept in water. 15 third instar nymphs of Nilaparvata lugens were released into each test tube and the tubes were kept in a plant growth chamber at a temperature of 25° C. and relative humidity of 75%. Observations on dead, moribund and alive nymphs were recorded 72 h after the release. Percent mortality was calculated by combining dead and moribund nymphs and comparing the result to the one of the untreated controls. The compounds

As for `O=S(CCC(F)(F)F)(=Nc1ccc2nn(-c3ccnnc3)cc2c1)c1ccc(F)cc1` (stereo not shown) [Compound 70], the mortality at 300 ppm in the assay with Myzus persicae was ≥ 70%.
On the same count and under the same terms, as for `CCS(=O)(CC)=Nc1cccc2nn(-c3cncc(F)c3)cc12` [Compound 89], the figure is ≥ 70%; as for `CC(C)S(C)(=O)=Nc1cccc2nn(-c3cncc(F)c3)cc12` (stereo not shown) [Compound 90], ≥ 70%.
Turning to `Cc1ccc(S(=O)(=Nc2ccc3nn(-c4cccnc4)cc3c2)N(C)C)cc1` (stereo not shown) [Compound 93, N,N,4-trimethyl-N′-(2-(pyridin-3-yl)-2H-indazol-5-yl)benzenesulfonimidamide], the mortality at 300 ppm in the assay with Bemisia tabaci and in the assay on Nilaparvata lugens was ≥ 70% throughout.
Take `CC(C)S(=O)(CCC(F)(F)F)=Nc1ccc2nn(-c3cccnc3)cc2c1` (stereo not shown) [Compound 99]: the mortality at 300 ppm in the assay with Myzus persicae was ≥ 70%.
Still for that read-out and setting: to `CC(C)S(=O)(CCC(F)(F)F)=Nc1cccc2nn(-c3cccnc3)cc12` (stereo not shown) [Compound 102] belongs ≥ 70%.
On to `CC(C)S(=O)(CCC(F)(F)F)=Nc1cccc2nn(-c3cncc(F)c3)cc12` (stereo not shown) [Compound 104], for which the mortality at 300 ppm in the assay on Bemisia tabaci and in the assay on Nilaparvata lugens was ≥ 70% each time.
Consider `COc1nn(-c2ccc3nn(-c4cccnc4)cc3c2)c(=O)n1Cc1cccc(F)c1` [Compound 126, 4-(3-fluorobenzyl)-5-methoxy-2-(2-(pyridin-3-yl)-2H-indazol-5-yl)-2,4-dihydro-3H-1,2,4-triazol-3-one], for which the mortality at 300 ppm with Bemisia tabaci and with Nilaparvata lugens was ≥ 70% in each case.
`CCCS(=O)(CC)=Nc1cccc2nn(-c3cccnc3)cc12` (stereo not shown) [Compound 136]: the mortality at 300 ppm in the assay with Myzus persicae is ≥ 70%.
The same measure, in the same setting: to `CCCS(=O)(CC)=Nc1cccc2nn(-c3cncc(F)c3)cc12` (stereo not shown) [Compound 138] belongs ≥ 70%; to `CC(C)S(C)(=O)=Nc1cnc2nn(-c3cccnc3)cc2c1` (stereo not shown) [Compound 156], ≥ 70%.
Same read-out and setting: as for `Cc1cncc(-n2cc3cc(N=S(C)(C)=O)ccc3n2)c1` [Compound 168], the figure is ≥ 70%.
In the case of `CCCS(C)(=O)=Nc1ccc2nn(-c3cncnc3)c(Cl)c2c1` (stereo not shown) [Compound 180], the mortality at 300 ppm in the assay with Myzus persicae is ≥ 70%.
Consider `CS(C)(=O)=Nc1ccc(Cl)c2nn(-c3cccnc3)cc12` [Compound 217], for which, in the assay with Myzus persicae, the mortality at 300 ppm is ≥ 70%.
The same measure, in the same setting: as for `CCCS(=O)(=Nc1ccc2nn(-c3cccnc3)cc2c1)C(C)C` (stereo not shown) [Compound 256], the figure is ≥ 70%.
For `COc1nn(-c2ccc3nn(-c4cncc(F)c4)cc3c2)c(=O)n1Cc1ccccc1F` [Compound 355, 4-(2-fluorobenzyl)-2-(2-(5-fluoropyridin-3-yl)-2H-indazol-5-yl)-5-methoxy-2,4-dihydro-3H-1,2,4-triazol-3-one], the mortality at 300 ppm with Bemisia tabaci and in the assay with Nilaparvata lugens was ≥ 70% in each case.
For the molecule `CCOc1nn(-c2ccc3nn(-c4cccnc4)cc3c2)c(=O)n1Cc1ccccc1F` [Compound 358, 5-ethoxy-4-(2-fluorobenzyl)-2-(2-(pyridin-3-yl)-2H-indazol-5-yl)-2,4-dihydro-3H-1,2,4-triazol-3-one], the mortality at 300 ppm with Bemisia tabaci and with Nilaparvata lugens was ≥ 70% each time.
Take `CCCCS(=N)(=O)c1ccc2nn(-c3cccnc3)cc2c1` (stereo not shown) [Compound 385, butyl(imino)(2-(pyridin-3-yl)-2H-indazol-5-yl)-λ^6-sulfanone]: the mortality at 300 ppm in the assay with Bemisia tabaci and in the assay with Nilaparvata lugens was ≥ 70% in each case.
Turning to `CCCCS(=O)(=NCC)c1ccc2nn(-c3cccnc3)cc2c1` (stereo not shown) [Compound 390], the mortality at 300 ppm in the assay on Myzus persicae was ≥ 70%.
For `CCN=S(=O)(CC)c1ccc2nn(-c3cccnc3)cc2c1` (stereo not shown) [Compound 391], the mortality at 300 ppm in the assay on Bemisia tabaci and with Nilaparvata lugens was ≥ 70% each time.
As for `O=S(CC1CC1)(=NC1CC1)c1ccc2nn(-c3cncnc3)cc2c1` (stereo not shown) [Compound 446], the mortality at 300 ppm in the assay on Bemisia tabaci and in the assay with Nilaparvata lugens was ≥ 70% each time.
Turning to `CN=S(=O)(CC1CC1)c1ccc2nn(-c3cncnc3)cc2c1` (stereo not shown) [Compound 447], the mortality at 300 ppm in the assay with Bemisia tabaci and with Nilaparvata lugens was ≥ 70% throughout.
Turning to `N=S(=O)(CC1CC1)c1ccc2nn(-c3cncnc3)cc2c1` (stereo not shown) [Compound 450, (cyclopropylmethyl)(imino)(2-(pyrimidin-5-yl)-2H-indazol-5-yl)-λ^6-sulfanone], the mortality at 300 ppm with Bemisia tabaci and in the assay with Nilaparvata lugens was ≥ 70% each time.
As to `CCS(=O)(=NC(C)=O)c1ccc2nn(-c3cncnc3)cc2c1` (stereo not shown) [Compound 456], in the assay with Myzus persicae, the mortality at 300 ppm was ≥ 70%.
In the case of `CCS(=N)(=O)c1ccc2nn(-c3cncc(F)c3)cc2c1` (stereo not shown) [Compound 460, ethyl(2-(5-fluoropyridin-3-yl)-2H-indazol-5-yl)(imino)-λ^6-sulfanone], the mortality at 300 ppm in the assay with Myzus persicae was ≥ 70%.
Consider `CCS(=O)(=NC(C)=O)c1ccc2nn(-c3cncc(F)c3)cc2c1` (stereo not shown) [Compound 462], for which the mortality at 300 ppm in the assay on Bemisia tabaci and in the assay on Nilaparvata lugens was ≥ 70% each time.
For `CS(=N)(=O)c1ccc2nn(-c3cncnc3)cc2c1` (stereo not shown) [Compound 470, imino(methyl)(2-(pyrimidin-5-yl)-2H-indazol-5-yl)-λ^6-sulfanone], the mortality at 300 ppm in the assay on Bemisia tabaci and in the assay on Nilaparvata lugens was ≥ 70% throughout.
Turning to `CCN=S(C)(=O)c1ccc2nn(-c3cncnc3)cc2c1` (stereo not shown) [Compound 474], the mortality at 300 ppm in the assay on Bemisia tabaci and in the assay on Nilaparvata lugens was ≥ 70% throughout.
Consider `CC(=O)N=S(C)(=O)c1ccc2nn(-c3cncnc3)cc2c1` (stereo not shown) [Compound 475], for which the mortality at 300 ppm in the assay on Bemisia tabaci and in the assay with Nilaparvata lugens was ≥ 70% in each case.
For the molecule `CCCS(=O)(=NC(C)=O)c1ccc2nn(-c3cncc(F)c3)cc2c1` (stereo not shown) [Compound 483], in the assay with Myzus persicae, the mortality at 300 ppm was ≥ 70%.
The same measure, in the same setting: to `CC1(CS(=N)(=O)c2ccc3nn(-c4cncc(F)c4)cc3c2)COC1` (stereo not shown) [Compound 484, (2-(5-fluoropyridin-3-yl)-2H-indazol-5-yl)(imino)((3-methyloxetan-3-yl)methyl)-λ^6-sulfanone] belongs ≥ 70%; to `CCC(CC)S(=O)(=NC(C)=O)c1ccc2nn(-c3cncc(F)c3)cc2c1` (stereo not shown) [Compound 485], ≥ 70%.
In the case of `CCC(C)S(=O)(=NC(C)=O)c1ccc2nn(-c3cncc(F)c3)cc2c1` (stereo not shown) [Compound 486], the mortality at 300 ppm with Myzus persicae is ≥ 70%.
`CC(=O)N=S(=O)(CCCF)c1ccc2nn(-c3cncc(F)c3)cc2c1` (stereo not shown) [Compound 487]: in the assay on Myzus persicae, the mortality at 300 ppm is ≥ 70%.
For `N=S(=O)(c1ccc2nn(-c3cncc(F)c3)cc2c1)C1CCC1` (stereo not shown) [Compound 488, cyclobutyl(2-(5-fluoropyridin-3-yl)-2H-indazol-5-yl)(imino)-λ^6-sulfanone], in the assay on Myzus persicae, the mortality at 300 ppm is ≥ 70%.
In the case of `CCN=S(=O)(c1ccc2nn(-c3cncc(F)c3)cc2c1)C(C)CC` (stereo not shown) [Compound 490], the mortality at 300 ppm in the assay on Myzus persicae is ≥ 70%.
`CCN=S(=O)(CCCF)c1ccc2nn(-c3cncc(F)c3)cc2c1` (stereo not shown) [Compound 491]: the mortality at 300 ppm in the assay on Myzus persicae is ≥ 70%.
The same measure, in the same setting: to `CCN=S(=O)(c1ccc2nn(-c3cncc(F)c3)cc2c1)C(CC)CC` (stereo not shown) [Compound 492] belongs ≥ 70%; to `N=S(=O)(c1ccc2nn(-c3cccnc3)cc2c1)C1CCCC1` (stereo not shown) [Compound 558, cyclopentyl(imino)(2-(pyridin-3-yl)-2H-indazol-5-yl)-λ^6-sulfanone], ≥ 70%.
For the molecule `N=S(=O)(c1ccc2nn(-c3cccnc3)cc2c1)C1CCCCC1` (stereo not shown) [Compound 560, cyclohexyl(imino)(2-(pyridin-3-yl)-2H-indazol-5-yl)-λ^6-sulfanone], the mortality at 300 ppm in the assay on Myzus persicae was ≥ 70%.
As to `N#CCCCS(=N)(=O)c1ccc2nn(-c3cccnc3)cc2c1` (stereo not shown) [Compound 564, 4-(2-(pyridin-3-yl)-2H-indazole-5-sulfonimidoyl)butanenitrile], the mortality at 300 ppm with Myzus persicae was ≥ 70%.
The same measure, in the same setting: to `CCN=S(=O)(c1ccc2nn(-c3cccnc3)cc2c1)C1CCC1` (stereo not shown) [Compound 567] belongs ≥ 70%; to `N=S(=O)(CC1CCCO1)c1ccc2nn(-c3cccnc3)cc2c1` (stereo not shown) [Compound 569, imino(2-(pyridin-3-yl)-2H-indazol-5-yl)((tetrahydrofuran-2-yl)methyl)-λ^6-sulfanone], ≥ 70%.
On the same count and under the same terms, to `CC(=O)N=S(=O)(c1ccc2nn(-c3cccnc3)cc2c1)C1CCCC1` (stereo not shown) [Compound 581] belongs ≥ 70%.
